Experimental data taken from patent US11046691B1 (IDEAYA BIOSCIENCES, INC., priority 2018, dated 2021).

Columns and labels:
hMAT2A [1] = molecular target: T1, hMAT2A (Homo sapiens (Human), UniProt P31153); test: Malachite Green Assay (MAT2A enzyme inhibition); type: biochemical; settings: hMAT2A 50 nM, substrates 500 uM each, 1 hour
Description: The ability of the compound of present disclosure to inhibit MAT2A enzyme was determined using the Malachite Green or Phosphate Sensor Fluorescence Assay described below.
L-methionine Substrate: Alfa Aesar catalog #J61904
ATP Substrate: Alfa Aesar cat #J60336
Malachite Green Detection Reagent: Millipore Sigma catalog #MAK307-1KT
Assay buffer: 50 mM Tris, pH 7.5/50 mM KCl/10 mM MgCl2/0.01% Brij-35/1 mM DTT/0.1% BGG
The plate was centrifuged at 1000 rpm for 1 minute and then incubated at room temperature for 1 hour. 5 μL of malachite green detection reagent was added to all the test wells and the plate was centrifuged at 1000 rpm for 1 minute and then incubated at room temperature for 30 minutes. The plate was read for absorbance at 620 nm on a plate reader (e.g., Infinite M1000).

hMAT2A [2] = molecular target: T1, hMAT2A; test: Phosphate Sensor Fluorescence Assay (MAT2A enzyme inhibition); type: biochemical; settings: L-methionine 500 uM, ATP 500 uM, class symbols
Procedure, shortened: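 Recombinant MAT2A preincubated 15 min at room temperature with compound, then reacted 1 h at room temperature with 500 uM L-methionine and 500 uM ATP in Tris pH 7.5 buffer containing PNP/7-MEG.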

T1 sequence (P31153 whole entry): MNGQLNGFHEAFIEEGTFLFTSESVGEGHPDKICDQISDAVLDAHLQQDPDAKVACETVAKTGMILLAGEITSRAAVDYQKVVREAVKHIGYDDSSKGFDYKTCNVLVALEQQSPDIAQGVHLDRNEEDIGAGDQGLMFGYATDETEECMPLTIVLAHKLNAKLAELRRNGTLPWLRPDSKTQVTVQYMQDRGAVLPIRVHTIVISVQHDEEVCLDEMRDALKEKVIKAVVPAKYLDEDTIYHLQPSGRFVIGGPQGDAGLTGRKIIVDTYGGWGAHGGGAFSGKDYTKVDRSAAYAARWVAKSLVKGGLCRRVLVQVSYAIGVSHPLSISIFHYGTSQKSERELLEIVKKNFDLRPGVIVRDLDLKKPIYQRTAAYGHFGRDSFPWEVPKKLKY

| SMILES | IC50 (hMAT2A [1]) | IC50 (hMAT2A [2]) |
| --- | --- | --- |
| CNc1nc(=O)n(-c2ccccn2)c2cc(Cl)ccc12 | 200 to 500 nM | – |
| CNc1nc(=O)n(-c2ncccn2)c2cc(Cl)ccc12 | < 200 nM | – |
| CNc1nc(=O)n(-c2cnccn2)c2cc(Cl)ccc12 | 200 to 500 nM | – |
| CNc1nc(=O)n(-c2cncnc2)c2cc(Cl)ccc12 | < 200 nM | – |
| CNc1nc(=O)n(-c2cn[nH]c2)c2cc(Cl)ccc12 | < 200 nM | – |
| CNc1nc(=O)n(-c2ccccc2)c2cc(Br)ccc12 | < 200 nM | – |
| CNc1nc(=O)n(-c2cc(O)cc(F)c2)c2cc(Cl)ccc12 | < 200 nM | – |
| CNc1nc(=O)n(-c2ccccc2)c2cc(Cl)c(F)cc12 | < 200 nM | – |
| CNc1nc(=O)n(-c2ccccc2)c2cc(Cl)cc(F)c12 | < 200 nM | – |
| CNc1nc(=O)n(-c2ccncc2)c2cc(Cl)ccc12 | 1000 to 10000 nM | – |
| CNc1nc(=O)n(-c2ccccc2)c2cc(Cl)ccc12 [Example 2, 7-chloro-4-(methylamino)-1-phenylquinazolin-2(1H)-one] | < 200 nM | – |
| CNc1nc(=O)n(-c2nccs2)c2cc(Cl)ccc12 [Example 17, 7-chloro-4-(methylamino)-1-(thiazol-2-yl)-quinazolin-2(1H)-one] | < 200 nM | – |
| CNc1nc(=O)n(-c2cncs2)c2cc(Cl)ccc12 [Example 18, 7-chloro-4-(methylamino)-1-(thiazol-5-yl)-quinazolin-2(1H)-one] | < 200 nM | – |
| O=c1nc(NC2COC2)c2ccc(Cl)cc2n1-c1ccccc1 [Example 21, 7-Chloro-4-(oxetan-3-ylamino)-1-phenylquinazolin-2(1H)-one] | 200 to 500 nM | – |
| O=c1nc(N[C@H]2CCOC2)c2ccc(Cl)cc2n1-c1ccccc1 [Example 22, (S)-7-chloro-1-phenyl-4-((tetrahydro-furan-3-yl)amino)-quinazolin-2(1H)-one] | 200 to 500 nM | – |
| O=c1nc(NCc2ccccc2)c2ccc(Cl)cc2n1-c1ccccc1 [Example 23, 4-(benzylamino)-7-chloro-1-phenyl-quinazolin-2(1H)-one] | 200 to 500 nM | – |
| O=c1nc(N2CCC2)c2ccc(Cl)cc2n1-c1ccccc1 [Example 25, 4-(azetidin-1-yl)-7-chloro-1-phenyl-quinazolin-2(1H)-one] | < 200 nM | – |
| O=c1nc(N2CC[C@H](O)C2)c2ccc(Cl)cc2n1-c1ccccc1 [Example 26, (S)-7-chloro-4-(3-hydroxypyrrolidin-1-yl)-1-phenylquinazolin-2(1H)-one] | < 200 nM | – |
| CN1CCN(c2nc(=O)n(-c3ccccc3)c3cc(Cl)ccc23)CC1 [Example 27, 7-chloro-4-(4-methylpiperazin-1-yl)-1-phenyl-quinazolin-2(1H)-one] | 1000 to 10000 nM | – |
| O=c1nc(N2CCOCC2)c2ccc(Cl)cc2n1-c1ccccc1 [Example 28, 7-chloro-4-morpholino-1-phenyl-quinazolin-2(1H)-one] | 200 to 500 nM | – |

| SMILES | IC50 (hMAT2A [1]) | IC50 (hMAT2A [2]) |
| --- | --- | --- |
| O=c1nc(-n2cccn2)c2ccc(Cl)cc2n1-c1ccccc1 [Example 29, 7-chloro-1-phenyl-4-(1H-pyrazol-1-yl)quinazolin-2(1H)-one] | 1000 to 10000 nM | – |
| O=c1nc(NCC(F)F)c2ccc(Cl)cc2n1-c1ccccc1 [Example 31, 7-chloro-4((2,2-difluoroethyl)amino)-1-phenyl-quinazolin-2 (1H)-one] | 500 to 1000 nM | – |
| O=c1nc(Nc2ccccn2)c2ccc(Cl)cc2n1-c1ccccc1 [Example 32, 7-chloro-1-phenyl-4-(pyridin-2-yl-amino)quinazolin-2(1H)-one] | 200 to 500 nM | – |
| CN(C)c1nc(=O)n(-c2ccccc2)c2cc(Br)ccc12 [Example 34, 7-bromo-4-(dimethylamino)-1-phenyl-quinazolin-2(1H)-one] | < 200 nM | – |
| N#Cc1cc2c(NCC3CC3)nc(=O)n(-c3ccccc3Cl)c2cc1C1CC1 [Example 409, 1-(2-chlorophenyl)-7-cyclopropyl-4-((cyclopropylmethyl)amino)-2-oxo-1,2-dihydroquinazoline-6-carbonitrile] | – | < 200 nM |
| CCc1cc(C2CC2)cc2c1c(NC)nc(=O)n2-c1ccccc1C [Example 410, 7-cyclopropyl-5-ethyl-4-(methylamino)-1-(2-methylphenyl)hydroquinazolin-2-one] | – | < 200 nM |
| O=c1nc(NCC2CC2)c2cc(Cl)c(C3CC3)cc2n1-c1ccccc1Cl [Example 411] | – | < 200 nM |
| O=c1nc(Nc2cnoc2)c2cc(Cl)c(Br)cc2n1-c1ccccc1Cl [Example 412, 7-bromo-6-chloro-1-(2-chlorophenyl)-4-(isoxazol-4-ylamino)hydroquinazolin-2-one] | – | < 200 nM |
| O=c1nc(N[C@@H]2C[C@@H]2F)c2ccc(C3CC3)cc2n1-c1ccccc1Cl [Example 413, 4-[((2S,1R)-2-fluorocyclopropyl)amino]-1-(2-chlorophenyl)-7-cyclopropyl-hydroquinazolin-2-one] | – | < 200 nM |
| CNc1nc(=O)n(-c2ccccc2)c2nc(C(C)C)ccc12 [Example 414, 4-(methylamino)-7-(methylethyl)-1-phenylpyrido[2,3-d]pyrimidin-2(1H)-2-one] | – | < 200 nM |
| CNc1nc(=O)n(-c2ccccc2Cl)c2cc(C3CC3)c(Br)cc12 [Example 417, 6-bromo-1-(2-chlorophenyl)-7-cyclo-propyl-4-(methylamino)hydro-quinazolin-2-one] | – | < 200 nM |
| O=c1nc(N[C@H]2C[C@@H]2F)c2ccc(OC(F)(F)F)cc2n1-c1ccccc1Cl [Example 418, 1-(2-chlorophenyl)-4-(((1S,2S)-2-fluorocyclopropyl)amino)-7-(trifluoro-methoxy)quinazolin-2(1H)-one] | – | < 200 nM |
| CNc1nc(=O)n(-c2cccc(CC(=O)O)c2)c2cc(Cl)ccc12 [Example 419, 2-(3-(7-chloro-4-(methylamino)-2-oxoquinazolin-1(2H)-yl)phenyl)acetic acid] | – | < 200 nM |
| CNc1nc(=O)n(-c2ccccc2)c2cc(C(F)(F)F)cc(F)c12 [Example 420, 5-fluoro-4-(methylamino)-1-phenyl-7-(trifluoromethyl)hydroquinazolin-2-one] | – | < 200 nM |
| O=c1nc(Nc2ccncc2)c2ccc(C(F)(F)F)nc2n1-c1ccccc1Cl [Example 421, 1-(2-chlorophenyl)-4-(pyridin-4-yl-amino)-7-(trifluoromethyl)pyrido[2,3-d]-pyrimidin-2(1H)-one] | – | < 200 nM |
| O=c1nc(OC2CC2)c2ccc(C(F)(F)F)nc2n1-c1ccccc1Cl [Example 422, 1-(2-chlorophenyl)-4-cyclopropoxy-7-(trifluoromethyl)pyrido[2,3-d]pyrimidin-2(1H)-one] | – | < 200 nM |
| COc1nc(=O)n(-c2ccccc2Cl)c2cc(C3CC3)ccc12 [Example 423, 1-(2-chlorophenyl)-7-cyclopropyl-4-methoxyhydroquinazolin-2-one] | – | < 200 nM |
| O=c1nc(N[C@H]2C[C@H]2F)c2ccc(C(F)(F)F)cc2n1-c1ccccc1 [Example 424, 4-(((1S,2R)-2-fluorocyclopropyl)amino)-1-phenyl-7-(trifluoromethyl)quinazolin-2(1H)-one] | – | < 200 nM |
| CC(F)(F)c1ccc2c(NCC3CC3)nc(=O)n(-c3ccccc3Cl)c2c1 [Example 425, 1-(2-chlorophenyl)-4-((cyclopropyl-methyl)amino)-7-(1,1-difluoroethyl)-quinazolin-2(1H)-one] | – | < 200 nM |
| CNc1nc(=O)n(-c2ccccc2Cl)c2cc(C3CC3)ccc12 [Example 426, 1-(2-chlorophenyl)-7-cyclopropyl-4-(methylamino)quinazolin-2(1H)-one] | – | < 200 nM |
